The nature of one series: in vitro. To be noted: pig, LLC-PK1.
In a further series the test system is Plasma. To be noted: rat, in vivo, po, 10 mg/kg, 4 h.
Series [1] can be described thus: in vivo. To be noted: Sprague-Dawley, rat, plasma, po, 10 mg/kg.
Series [2] in a line: in vivo. To be noted: Sprague-Dawley, rat, CSF, po, 10 mg/kg.

Take `CC(C)(C)COc1ccc2c(c1)[C@]1(COC(N)=N1)c1cc(-c3cncnc3)cnc1O2`: in “in vitro”, the Papp at 2 h came out at 16 ×10⁻⁶ cm/s.
In the series “in vitro”, `NC1=N[C@@]2(CO1)c1cc(-c3cccnc3F)ccc1Oc1ncc(C3CCOCC3)cc12` showed an apparent permeability (Papp) at 2 h of 15 ×10⁻⁶ cm/s.
Same read-out and setting: the figure for `NC1=N[C@@]2(CO1)c1cc(-c3cccnc3F)ccc1Oc1ncc(-c3ccnc(F)c3)cc12` is 15 ×10⁻⁶ cm/s; for `NC1=N[C@@]2(CO1)c1cc(-c3cccnc3F)ccc1Oc1ncc(N3CCOCC3)cc12` it is 10 ×10⁻⁶ cm/s; for `CC(C)(C)COc1cnc2c(c1)[C@]1(COC(N)=N1)c1cc(-c3cccnc3)ccc1O2` it is 11 ×10⁻⁶ cm/s.
Still for that read-out and setting: the figure for `N#Cc1ccc(-c2cnc3c(c2)[C@]2(COC(N)=N2)c2cc(-c4cccnc4F)ccc2O3)cc1` is 16 ×10⁻⁶ cm/s; for `CC(C)(C)COc1cnc2c(c1)[C@]1(COC(N)=N1)c1cc(-c3cncnc3)ccc1O2` it is 16 ×10⁻⁶ cm/s.
The molecule `COC(C)(C)C#Cc1cnc2c(c1)[C@]1(COC(N)=N1)c1cc(-c3cccnc3F)ccc1O2` came in with a Papp at 2 h in “in vitro” of 12 ×10⁻⁶ cm/s.
On to `NC1=N[C@@]2(CO1)c1cc(-c3cccnc3F)ccc1Oc1ncc(C3=CCCOC3)cc12`, for which, in “in vitro”, the Papp at 2 h was found to be 11 ×10⁻⁶ cm/s.
As for `NC1=N[C@@]2(CO1)c1cc(-c3cccnc3F)ccc1Oc1ncc(C3=CCOCC3)cc12`, the Papp at 2 h in the series “in vitro” stood at 20 ×10⁻⁶ cm/s. This Papp at 2 h is about 1.8-fold higher than that of the molecule before.
Molecule `CC(C)(O)C#Cc1cnc2c(c1)[C@]1(COC(N)=N1)c1cc(-c3cccnc3F)ccc1O2` yielded a Papp at 2 h in “in vitro” of 11 ×10⁻⁶ cm/s.
For `CC(C)(C)C#Cc1cnc2c(c1)[C@]1(COC(N)=N1)c1cc(-c3cccnc3F)ccc1O2`, the Papp at 2 h in “in vitro” came out at 9.5 ×10⁻⁶ cm/s.
In turn, `COC(C)(C)COc1cnc2c(c1)[C@]1(COC(N)=N1)c1cc(-c3cccnc3F)ccc1O2` registered a Papp at 2 h in the series “in vitro” of 16 ×10⁻⁶ cm/s.
`CC(C)(C)COc1cnc2c(c1)[C@]1(COC(N)=N1)c1cc(-c3cccnc3F)ccc1O2` came in with a Papp at 2 h in the series “in vitro” of 14 ×10⁻⁶ cm/s.
As for `CC1(C)C=C(c2cnc3c(c2)[C@]2(COC(N)=N2)c2cc(-c4cccnc4F)ccc2O3)CCO1`, the “Cp(f)” value in the series on Plasma worked out at 0.045 µM. The concentration at 4 h turned out to be 1010 nM in “in vivo [1]” and 5 nM in the series “in vivo [2]”. In addition, the apparent permeability coefficient (Papp) at 2 h in the series “in vitro” is 17 ×10⁻⁶ cm/s.
In turn, `Cc1ccc(-c2cnc3c(c2)[C@]2(COC(N)=N2)c2cc(-c4cccnc4F)ccc2O3)cc1` displayed a Papp at 2 h in “in vitro” of 14 ×10⁻⁶ cm/s.
